The test system of this test is M. tuberculosis H37Rv growth inhibition, 7H9 media. As to the kind of experiment: M. tuberculosis growth inhibition, HTS (AID 449762).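 On all read-outs here: bacterial growth assessed after seven days of incubation.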 Particulars: for IC90: measured here: IC90 growth inhibition.

Records with an inconclusive call do not appear.

Usually IC50 stands for the concentration at which inhibition is half-maximal. One may read the IC90 as the concentration needed for an effect of 90%. Read a high IC90 as a need for much substance.

As for `O=C(CNC(=O)c1ccc(Cl)cc1)c1ccc(Cl)cc1`, the IC50 is 96.6 µM and the IC90 was greater than 100 µM.

Consider `O=C(Oc1c(Cl)cc(Cl)c2cccnc12)c1cccs1`, for which the IC50 was 0.89 µM and the IC90 turned out to be 1.24 µM.

With `CCc1ccc2[nH]c(=O)c(CN(CCCN3CCOCC3)C(=O)Nc3cccc(Cl)c3)cc2c1`, the IC50 was 24.1 µM and the IC90 was 30.4 µM.

Turning to `COc1cc(CNCCc2ccccc2)cc(Cl)c1OCc1ccccc1`, the IC50 is 22.3 µM and the IC90 is 24.9 µM.

Regarding `O=C(Oc1ccccc1)c1ccccc1OS(=O)(=O)c1ccccc1`, the IC50 is 1.1 µM and the IC90 was determined as 14.3 µM.

On to `Cc1ccc(C(=O)c2oc3ccc(Cl)cc3c2NC(=O)CN2CCN(C)CC2)cc1`, for which the half-maximal inhibitory concentration (IC50) was 14.6 µM and the IC90 came to 17.8 µM.

Consider `C=C1C(=O)O[C@@H]2C[C@@H](C)[C@@H]3C4OC4C(=O)[C@@]3(C)[C@@H](O)[C@H]12` (stereo partly specified), for which the IC50 is 3.64 µM and the IC90 is 9.39 µM.

For the compound `CC(=O)OCC1O[C@@H](O[C@@H]2C[C@H]3C(C)(C)[C@H](OC(C)=O)CC[C@]3(C)[C@H]3CC[C@]45C[C@]4(CC[C@H]5[C@@H](C)C[C@@H](O)[C@H](O)C(C)(C)O)[C@@]32C)[C@H](O)[C@@H](O)[C@@H]1O` (stereo partly specified), the IC50 was 30.7 µM and the IC90 came to 39.6 µM.

Regarding `CCCSc1nn2c(=O)c3ccccc3nc2s1`, the half-inhibitory concentration (IC50) was 8.34 µM and the IC90 turned out to be 25.2 µM.

Take `Oc1[nH]c2ccccc2c1N=NC(=S)N1CCOCC1`: the IC50 is 12.3 µM and the IC90 was 13.9 µM.

For `COc1cccc(C2C3=C(N=c4s/c(=C\c5cccc(O)c5)c(=O)n42)c2ccccc2CC3)c1OC` (stereo unspecified), the IC50 was 23.3 µM and the IC90 was determined as 27.1 µM.

In the case of `CC(C)(C)C1CCc2nc(NC(=O)Cc3cn4ccsc4n3)sc2C1` (stereo unspecified), the IC50 was 15.5 µM and the IC90 came out at 39.6 µM.

With `COc1ccc(/C=N/Nc2cc(C)nc3ccc(OC)cc23)c(OC)c1`, the IC50 is 9.39 µM and the 90% effect concentration (IC90) was 11.9 µM.

Consider `CN1CCN(c2c(F)cc3c(=O)c(C(=O)O)cn4c3c2OCN4C)CC1`, for which the IC50 was 0.72 µM and the IC90 turned out to be 0.8 µM.

In the case of `O=C(NC(=S)Nc1ccc(N2CCCCC2)c(Cl)c1)c1cccs1`, the IC50 is 20.2 µM and the IC90 is 27.1 µM.

For the compound `CCCc1ccc(NC(=O)C2CCN(c3cnccn3)CC2)cc1`, the IC50 was 53.9 µM and the IC90 turned out to be 78.7 µM.

`COc1cccc(-n2nnc3c(=O)n(CC(=O)N4CCC(Cc5ccccc5)CC4)cnc32)c1`: the IC50 is 23.2 µM and the IC90 came to 36.7 µM.

With `COc1ccc(N/N=C(/N=Nc2nc(C)cc(=O)[nH]2)c2ccccc2)cc1`, the IC50 is 5.91 µM and the IC90 came to 6.69 µM.

On to `CNC(=S)/N=C/NOCc1c(Cl)cccc1Cl`, for which the IC50 is 5.44 µM and the IC90 is 12.9 µM.

As for `CCOC(=O)COc1ccc(C2CC(C)=NN2c2ccccc2)cc1` (stereo unspecified), the IC50 was 2.81 µM and the IC90 came out at 17.7 µM.

Regarding `CC1(C)OC(=O)C(=Cc2ccc[nH]2)C(=O)O1`, the IC50 is less than 0.2 µM and the 90% effect concentration (IC90) is 24.1 µM.

Turning to `COc1ccccc1C1c2ccc3ccccc3c2Oc2ncn(CCN(C)C)c(=N)c21` (stereo unspecified), the IC50 is 22.3 µM and the IC90 was 24.9 µM.

In the case of `CC1=NN(C(N)=S)C(=O)C1N=Nc1ccc(C)c(Br)c1` (stereo unspecified), the IC50 was 11.5 µM and the IC90 amounted to 19.1 µM.

Consider `CC(C)n1cnc2c(NCc3ccccc3)cc(Cc3ccc(F)cc3)cc21`, for which the IC50 was 26.9 µM and the IC90 was determined as 36.5 µM.

Regarding `CC(C)OC(=O)CCCCCN1C(=O)CSC1=S`, the IC50 is 3.5 µM and the IC90 worked out at 8.17 µM.

`Cc1ccc(C)c(NNC(N)=S)c1`: the 50% inhibitory concentration (IC50) was 6.39 µM and the IC90 is 15.6 µM.

Consider `Clc1cc(Cl)cc(Nc2ncn[nH]2)c1`, for which the IC50 was 24.1 µM and the IC90 was greater than 100 µM.

Regarding `O=C(Oc1ccc2ccccc2c1)c1cncc(Br)c1`, the IC50 was 13 µM and the IC90 amounted to 60.3 µM.

Source of the values: PubChem BioAssay AID449762 (Southern Research Specialized Biocontainment Screening …, 2010).
